Data on six compounds can be found in PubChem BioAssay (NCI).

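Where inhibition never reached the appropriate level, the endpoint shown equals the highest concentration tested. Otherwise, values were interpolated linearly from a five-concentration, 48-hour dose response in 96-well plates. Abbreviation: GI50, concentration required for 50% inhibition of growth. TGI marks complete inhibition of growth.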

Among the test systems are HOP-62 NSCLC; ACHN renal; LOX IMVI melanoma; HCC-2998 colon; NCI-H522 lung; MDA-MB-435; RXF 393 renal; HT29 colon; TK-10 renal; OVCAR-4 ovarian.
Holding throughout (test): growth of human tumour cells (NCI), 48 h

On to `O=C1Nc2ccc(F)cc2/C1=C/c1ccc[nH]1`, for which the GI50 is greater than 25 µM in the test with HOP-62 NSCLC; 18.5 µM with ACHN renal; 24.2 µM in the test with LOX IMVI melanoma; greater than 22.1 µM in the test on HCC-2998 colon; greater than 25 µM with NCI-H522 lung; greater than 25 µM in the test with MDA-MB-435. Further, the GI50 in the test on RXF 393 renal is greater than 18.3 µM; with HT29 colon, greater than 25 µM; with TK-10 renal, 14.4 µM; in the test on OVCAR-4 ovarian, 4.06 µM. Besides, the TGI in the test with HOP-62 NSCLC, with ACHN renal, in the test on LOX IMVI melanoma, in the test on HCC-2998 colon, in the test on NCI-H522 lung and in the test on MDA-MB-435 was greater than 25 µM each time. The TGI in the test on RXF 393 renal, with HT29 colon, in the test with TK-10 renal and in the test with OVCAR-4 ovarian was greater than 25 µM throughout.

Take `Br[C](Br)(Br)[Hg][c]1ccccc1`: the GI50 was 13.4 µM in the test on HOP-62 NSCLC; 17.1 µM with ACHN renal; 9.71 µM in the test with LOX IMVI melanoma; 14.4 µM in the test on HCC-2998 colon; 1.44 µM with NCI-H522 lung; 16.1 µM with MDA-MB-435. Further, the GI50 in the test on RXF 393 renal was 8.55 µM; in the test with HT29 colon, 11.1 µM; in the test on TK-10 renal it was 17.5 µM; with OVCAR-4 ovarian, 19.9 µM. Further, the TGI came out at 18.7 µM in the test with HOP-62 NSCLC; 30.8 µM with ACHN renal; 23.2 µM in the test with LOX IMVI melanoma; 27.7 µM in the test on HCC-2998 colon; 3.05 µM in the test with NCI-H522 lung; 30 µM in the test with MDA-MB-435. The TGI with RXF 393 renal was found to be 21.5 µM; with HT29 colon, 25.5 µM; in the test with TK-10 renal, 31.4 µM; in the test on OVCAR-4 ovarian it was 41.9 µM.

Turning to `CCOc1cc(C(C)(C)C)ccc1C1=N[C@@](C)(c2ccc(Cl)cc2)[C@@](C)(c2ccc(Cl)cc2)N1C(=O)N1CCN(CCCS(C)(=O)=O)CC1`, the GI50 with HOP-62 NSCLC is 11.4 µM; in the test with ACHN renal, 0.505 µM; with LOX IMVI melanoma, 0.438 µM; in the test with HCC-2998 colon, 2.51 µM; with NCI-H522 lung, 7.11 µM; with MDA-MB-435, 5.21 µM. The GI50 is 3.39 µM in the test on RXF 393 renal, 2.96 µM in the test on HT29 colon, 10.3 µM with TK-10 renal and 7.33 µM in the test with OVCAR-4 ovarian. Also, the TGI with HOP-62 NSCLC worked out at 29.3 µM; with ACHN renal, 11.3 µM; in the test with LOX IMVI melanoma it was 11 µM; in the test with HCC-2998 colon it was 6.95 µM; in the test with NCI-H522 lung it was 39.2 µM; with MDA-MB-435 it was 19.4 µM. Besides, the TGI stood at 14.4 µM in the test on RXF 393 renal, 9.28 µM in the test on HT29 colon, 46.9 µM in the test on TK-10 renal and 22.5 µM in the test on OVCAR-4 ovarian.

As to `CC1=C[C@H]2c3c(c(O)c(O)c4oc(-c5ccccc5)cc(=O)c34)[C@H](c3cc(O)c(O)c4oc(-c5ccccc5)cc(=O)c34)[C@H]2C(C)(C)C1`, the GI50 with HOP-62 NSCLC is 0.76 µM; in the test with ACHN renal it was 0.679 µM; in the test with LOX IMVI melanoma it was 0.395 µM; in the test with HCC-2998 colon, 1.56 µM; in the test with NCI-H522 lung, 1.77 µM; with MDA-MB-435, 0.435 µM. Moreover, the GI50 in the test with RXF 393 renal was 0.245 µM; with HT29 colon, 0.888 µM; with TK-10 renal, 1.57 µM; with OVCAR-4 ovarian, 1.56 µM. Moreover, the TGI worked out at 12.9 µM in the test on HOP-62 NSCLC; 5.67 µM in the test on ACHN renal; 1.33 µM with LOX IMVI melanoma; 4.65 µM in the test with HCC-2998 colon; 6.23 µM with NCI-H522 lung; 5.74 µM with MDA-MB-435. For the same compound, the TGI was 1.86 µM in the test on RXF 393 renal, greater than 75 µM in the test with HT29 colon, 31 µM in the test with TK-10 renal and 9.55 µM in the test with OVCAR-4 ovarian.

For the compound `C[C@]12CC[C@@H]3c4cc(OCC(F)(F)F)c(O)cc4/C(=N/O)C[C@H]3[C@@H]1CC[C@@H]2O`, the GI50 with HOP-62 NSCLC was 0.029 µM; with ACHN renal, 0.065 µM; in the test on LOX IMVI melanoma it was 0.048 µM; with NCI-H522 lung, 0.0507 µM; in the test on RXF 393 renal, 0.0322 µM. Further, the TGI with HOP-62 NSCLC is 0.419 µM; in the test with ACHN renal it was greater than 64 µM; in the test with LOX IMVI melanoma, 14.8 µM; with HCC-2998 colon it was 11.4 µM; in the test on NCI-H522 lung, 25.6 µM; in the test on MDA-MB-435, 0.0465 µM. In addition, the TGI with RXF 393 renal is 0.135 µM; with HT29 colon it was 13.2 µM; in the test with TK-10 renal it was greater than 100 µM; with OVCAR-4 ovarian, 39 µM.

As for `CCSc1nc(SCC)c2cn[nH]c2n1`, the GI50 in the test with HOP-62 NSCLC was 18.6 µM; with ACHN renal it was 44.3 µM; in the test on LOX IMVI melanoma it was 57.1 µM; with HCC-2998 colon it was 35.6 µM; with NCI-H522 lung, 35.7 µM; in the test on MDA-MB-435, 49.6 µM. The GI50 in the test with RXF 393 renal is 29 µM; with HT29 colon, 62.9 µM; in the test on TK-10 renal, 58.3 µM; in the test with OVCAR-4 ovarian, 84.1 µM. Besides, the TGI in the test on HOP-62 NSCLC, in the test on ACHN renal, in the test with LOX IMVI melanoma, with HCC-2998 colon, in the test with NCI-H522 lung and with MDA-MB-435 was greater than 100 µM throughout. Besides, the TGI in the test on RXF 393 renal, in the test on HT29 colon, in the test on TK-10 renal and in the test on OVCAR-4 ovarian was greater than 100 µM throughout.
